In patent US12473289B2, “Heterocyclic compounds as delta-5 desaturase inhibitors and methods of use” (Amgen Inc., priority 2019, dated 2025) one finds IC50 and inhibition in vivo data, which are given here for 23 compounds.

Experiment [1] deals with Delta-5-Desaturase (D5D) (Homo sapiens (Human), UniProt O60427). The experiment is described as follows: In vitro measurement of Delta-5-Desaturase inhibitory activity using DGLA-CoA and Arachidonyl-CoA mass spectrometric assays. The following applies: membrane preparations of D5D-overexpressing HEK293 6E cells; averaged over at least two independent runs. Format: biochemical. In outline:
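DGLA-CoA and arachidonyl-CoA were read by RapidFire SPE triple-quad MS (negative mode, MRM) after a 1 h ambient-temperature reaction quenched with acetonitrile. Enzyme was D5D-overexpressing HEK293 6E membranes at 10 μg/mL final; substrate solution held 0.01 mM DGLA plus NADH, ATP and CoA. Inhibition was referenced to DMSO and no-enzyme wells; 4PL IC50.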

Experiment [2] concerns the target Delta-5-Desaturase (D5D) (Mus musculus (Mouse), UniProt Q920L1). The experiment is described as follows: In vivo measurement of Delta-5-Desaturase inhibitory activity (plasma AA/DGLA ratio in DIO mice). The following applies: single oral dose 30 mg/kg, read-out: Average % D5D Inhibition expressed as Plasma Endogenous AA/DGLA Ratio. The method, then:
In vivo Measurement of Delta-5-Desaturase Inhibitory Activity
Diet-induced obese (DIO; Jackson Laboratories strain #3800050) mice were used to screen for pharmacodynamic (PD) activity of test compounds. Generally, 14 to 24 week old DIO mice, were administered test compounds formulated in the vehicle of 2% hydroxypropyl methylcellulose (HPMC) and 1% Tween80. Animals were dosed on body weight by oral gavage with a single dose (30 mg/kg) for PD studies. Necropsy included plasma collection for PUFA analysis. 10 μl of plasma or standards diluted in surrogate matrix (65 g/l bovine serum albumin in Dulbecco's phosphate-buffered saline) were mixed with 10 μl of an internal standard (100 μM alpha-linolenic acid-d14 (ALA-d14, Cayman Chemical)) in a 96 well plate. 100 μl of 2N NAOH was added to the mixture for subsequent saponification at 65° C. for 1 hour. The mixture was then acidified with 50 μl of formic acid followed by two consecutive hexane extractions. Hexane (500 μl) was added and the mixture thoroughly mixed by vortexing, followed by centrifugation at 4,000 rpm for 15 min. The hexane phase was transferred to a new 1 ml 96 well plate and the remaining aqueous layer was extracted with hexane. The organic extracts were combined and the solvent was removed by placing the plate under nitrogen gas at 55° C. 250 μl of 90% methanol was added to the plate followed by vortexing for 2 minutes. 200 μl of the samples were transferred to a new 96 well polypropylene plate. The samples were analyzed on a LC-MS/MS for the following PUFAs: arachidonic acid (AA), dihomo-gamma-linolenic acid (DGLA), with ALA-d14 as the internal standard. Description of the LC-MS/MS method: 5 μl of sample was injected onto a Poroshell 120 EC-C18 3.0×50 mm, 1.9 μm id column. […] The PUFA peak areas were quantified by using the SCIEX Analyst software. […] The relative decrease of the AA/DGLA ratio of the test compound administered group relative to the vehicle administered group was calculated and used as an index for the degree of D5D inhibition.
The results presented in Table 27 were obtained using certain compounds described herein in the in vivo protocol described above.

Chain of Delta-5-Desaturase (D5D) (Homo sapiens (Human), UniProt O60427) (O60427 whole entry, species assumed): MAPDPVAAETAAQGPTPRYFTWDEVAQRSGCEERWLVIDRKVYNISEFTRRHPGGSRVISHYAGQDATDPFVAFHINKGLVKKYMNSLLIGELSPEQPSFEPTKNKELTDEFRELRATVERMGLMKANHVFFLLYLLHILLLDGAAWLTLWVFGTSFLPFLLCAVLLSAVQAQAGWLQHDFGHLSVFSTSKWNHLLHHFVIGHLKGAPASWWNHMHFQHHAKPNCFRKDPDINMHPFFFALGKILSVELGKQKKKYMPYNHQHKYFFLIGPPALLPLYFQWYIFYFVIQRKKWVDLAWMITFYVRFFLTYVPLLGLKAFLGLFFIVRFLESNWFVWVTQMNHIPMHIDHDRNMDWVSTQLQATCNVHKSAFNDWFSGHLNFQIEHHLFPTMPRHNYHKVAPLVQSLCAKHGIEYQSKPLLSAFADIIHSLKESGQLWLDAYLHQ
Chain of Delta-5-Desaturase (D5D) (Mus musculus (Mouse), UniProt Q920L1) (Q920L1 whole entry): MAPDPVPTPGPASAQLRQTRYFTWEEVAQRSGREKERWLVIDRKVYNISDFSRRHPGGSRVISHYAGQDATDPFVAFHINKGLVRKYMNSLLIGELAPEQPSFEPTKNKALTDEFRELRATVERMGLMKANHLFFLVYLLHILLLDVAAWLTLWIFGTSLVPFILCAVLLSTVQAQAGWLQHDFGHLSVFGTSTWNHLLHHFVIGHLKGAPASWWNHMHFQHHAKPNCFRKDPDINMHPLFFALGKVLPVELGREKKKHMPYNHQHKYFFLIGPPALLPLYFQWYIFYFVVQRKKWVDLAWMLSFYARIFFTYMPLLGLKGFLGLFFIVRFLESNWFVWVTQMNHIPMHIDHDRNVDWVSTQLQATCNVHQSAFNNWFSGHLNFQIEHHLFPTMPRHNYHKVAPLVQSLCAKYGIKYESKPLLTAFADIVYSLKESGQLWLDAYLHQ

Turning to `[2H]C([2H])([2H])Oc1ccn2c(=O)c(-c3ccc(OCC(F)(F)F)cc3)c(C(F)(F)F)nc2n1` [Example 1-59, 8-(methyloxy-d3)-3-(4-(2,2,2-trifluoroethoxy)phenyl)-2-(trifluoromethyl)-4H-pyrimido[1,2-a]pyrimidin-4-one], on Delta-5-Desaturase (D5D) [1], it took 14.5 nM to reach half-maximal inhibition (IC50). Moreover, at Delta-5-Desaturase (D5D) [2], the inhibition in vivo at 30 mg/kg was found to be 73%.
On the same counts, the results for `COc1ccn2c(=O)c(-c3ccc(OCC(F)(F)F)cc3C)c(C(F)(F)F)nc2c1` [Example 4-3, 8-methoxy-3-(2-methyl-4-(2,2,2-trifluoroethoxy)phenyl)-2-(trifluoromethyl)-4H-pyrido[1,2-a]pyrimidin-4-one] are 22 nM and 60%.
`O=c1ccn2c(=O)c(-c3ccc(OCC(F)(F)F)cc3)c(C(F)(F)F)[nH]c2c1` [Example 10-1, 3-(4-(2,2,2-Trifluoroethoxy)phenyl)-2-(trifluoromethyl)-4H-pyrido[1,2-a]pyrimidine-4,8(1H)-dione]: the midpoint of inhibition at Delta-5-Desaturase (D5D) [1], the IC50, lay at 43.8 nM. Moreover, the inhibition in vivo at 30 mg/kg on Delta-5-Desaturase (D5D) [2] turned out to be 74%.
The compound `CNc1ccn2c(=O)c(-c3cnn(CC(F)(F)C(F)(F)F)c3)c(C(F)(F)F)nc2c1` [Example 1-23, 8-(methylamino)-3-(1-(2,2,3,3,3-pentafluoropropyl)-1H-pyrazol-4-yl)-2-(trifluoromethyl)-4H-pyrido[1,2-a]pyrimidin-4-one] gave an IC50 on Delta-5-Desaturase (D5D) [1] of 19.9 nM. The inhibition in vivo at 30 mg/kg on Delta-5-Desaturase (D5D) [2] was 57%.
On the same counts, the results for `CCOc1ccn2c(=O)c(-c3ccc(OCC(F)(F)F)cc3)c(C(F)(F)F)nc2c1` [Example 11-3, 8-ethoxy-3-(4-(2,2,2-trifluoroethoxy)phenyl)-2-(trifluoromethyl)-4H-pyrido[1,2-a]pyrimidin-4-one] are 27.5 nM and 37%.
The corresponding values for `O=c1c(-c2ccc(OCC(F)(F)F)cc2)c(C(F)(F)F)nc2cc(CF)ccn12` [Example 13-4, 8-(fluoromethyl)-3-(4-(2,2,2-trifluoroethoxy)phenyl)-2-(trifluoromethyl)-4H-pyrido[1,2-a]pyrimidin-4-one] are 9.4 nM and 75%.
Consider `[2H]C([2H])([2H])Oc1ccn2c(=O)c(-c3cnn(CC(F)(F)C(F)(F)F)c3)c(C(F)(F)F)nc2c1` [Example 1-33, 8-(methyloxy-d3)-3-(1-(2,2,3,3,3-pentafluoropropyl)-1H-pyrazol-4-yl)-2-(trifluoromethyl)-4H-pyrido[1,2-a]pyrimidin-4-one], for which, at Delta-5-Desaturase (D5D) [1], the IC50 is 17.3 nM. The inhibition in vivo at 30 mg/kg at Delta-5-Desaturase (D5D) [2] was 84%.
The corresponding values for `COc1ccn2c(=O)c(-c3ccc(OCC4CC4(F)F)cc3)c(C(F)(F)F)nc2c1` (stereo not shown) [Example 1-4, 3-(4-((2,2-difluorocyclopropyl)methoxy)phenyl)-8-methoxy-2-(trifluoromethyl)-4H-pyrido[1,2-a]pyrimidin-4-one] are 6.6 nM and 60%.
On the same counts, the results for `CCc1nc2cc(OC)ccn2c(=O)c1-c1ccc(OCC(F)(F)F)cc1` [Example 1-77, 2-ethyl-8-methoxy-3-(4-(2,2,2-trifluoroethoxy)phenyl)-4H-pyrido[1,2-a]pyrimidin-4-one] are 6.6 nM and 75%.
On the same counts, the results for `COc1ccn2c(=O)c(-c3cnn(CCCC(F)(F)F)c3)c(C(F)(F)F)nc2c1` [Example 1-75, 8-methoxy-3-(1-(4,4,4-trifluorobutyl)-1H-pyrazol-4-yl)-2-(trifluoromethyl)-4H-pyrido[1,2-a]pyrimidin-4-one] are 29.6 nM and 77%.
Turning to `COc1ccn2c(=O)c(-c3ccc(OCC(F)(F)F)cc3)c(OC)nc2c1` [Example 1-80, 2,8-dimethoxy-3-(4-(2,2,2-trifluoroethoxy)phenyl)-4H-pyrido[1,2-a]pyrimidin-4-one], the IC50 against Delta-5-Desaturase (D5D) [1] amounted to 12.5 nM. Further, the inhibition in vivo at 30 mg/kg on Delta-5-Desaturase (D5D) [2] came out at 57%.
On Delta-5-Desaturase (D5D) [1], `COc1ccn2c(=O)c(-c3ccc(OCC(F)(F)F)cc3)c(C(F)(F)F)nc2n1` [Example 1-50, 8-methoxy-3-(4-(2,2,2-trifluoroethoxy)phenyl)-2-(trifluoromethyl)-4H-pyrimido[1,2-a]pyrimidin-4-one] gave an IC50 of 16.8 nM. In addition, at Delta-5-Desaturase (D5D) [2], the inhibition in vivo at 30 mg/kg was 73%.
On the same counts, the results for `CCOc1nc2cc(OC)ccn2c(=O)c1-c1ccc(OCC(F)(F)F)cc1` [Example 1-81, 2-ethoxy-8-methoxy-3-(4-(2,2,2-trifluoroethoxy)phenyl)-4H-pyrido[1,2-a]pyrimidin-4-one] are 12.9 nM and 44%.
The corresponding values for `COc1ccn2c(=O)c(-c3ccc(OCC(F)(F)F)c(F)c3)c(C(F)(F)F)nc2n1` [Example 1-73, 3-(3-fluoro-4-(2,2,2-trifluoroethoxy)phenyl)-8-methoxy-2-(trifluoromethyl)-4H-pyrimido[1,2-a]pyrimidin-4-one] are 22 nM and 72%.
The corresponding values for `COc1ccn2c(=O)c(-c3ccc(OCC(F)(F)F)cc3)c(CF)nc2c1` [Example 1-58, 2-(fluoromethyl)-8-methoxy-3-(4-(2,2,2-trifluoroethoxy)phenyl)-4H-pyrido[1,2-a]pyrimidin-4-one] are 66.1 nM and 74%.
With `COc1ccn2c(=O)c(-c3cnn(CCC(F)(F)F)c3)c(C(F)(F)F)nc2c1` [Example 1-69, 8-methoxy-2-(trifluoromethyl)-3-[1-(3,3,3-trifluoropropyl)pyrazol-4-yl]pyrido[1,2-a]pyrimidin-4-one], the IC50 against Delta-5-Desaturase (D5D) [1] came out at 15.2 nM. Besides, the inhibition in vivo at 30 mg/kg on Delta-5-Desaturase (D5D) [2] was 71%.
The corresponding values for `O=c1c(-c2cnn(CC(F)(F)C(F)(F)F)c2)c(C(F)(F)F)nc2cc(CO)ccn12` [Example 13-1, 8-(Hydroxymethyl)-3-(1-(2,2,3,3,3-pentafluoropropyl)-1H-pyrazol-4-yl)-2-(trifluoromethyl)-4H-pyrido[1,2-a]pyrimidin-4-one] are 23.9 nM and 52%.
On the same counts, the results for `O=c1ccn2c(=O)c(-c3cnn(CC(F)(F)C(F)(F)F)c3)c(C(F)(F)F)nc2[nH]1` [Example 10-4, 7-(1-(2,2,3,3,3-pentafluoropropyl)-1H-pyrazol-4-yl)-8-(trifluoromethyl)-2H-pyrimido[1,2-a]pyrimidine-2,6(1H)-dione] are 68.4 nM and 52%.
The corresponding values for `COc1ccn2c(=O)c(-c3ccc(OCC(F)(F)F)cc3)c(C(F)(F)F)nc2c1` [Example 1-44, 8-methoxy-3-(4-(2,2,2-trifluoroethoxy)phenyl)-2-(trifluoromethyl)-4H-pyrido[1,2-a]pyrimidin-4-one] are 3.4 nM and 76%.
`COc1ccn2c(=O)c(-c3ccc(OC(F)(F)F)cc3)c(C(F)(F)F)nc2n1` [Example 1-72, 8-methoxy-3-(4-(trifluoromethoxy)phenyl)-2-(trifluoromethyl)-4H-pyrimido[1,2-a]pyrimidin-4-one] yielded an IC50 against Delta-5-Desaturase (D5D) [1] of 57.2 nM. Besides, the inhibition in vivo at 30 mg/kg at Delta-5-Desaturase (D5D) [2] was found to be 54%.
The corresponding values for `CN(C)c1ccn2c(=O)c(-c3cnn(CC(F)(F)C(F)(F)F)c3)c(C(F)(F)F)nc2c1` [Example 1-22, 8-(dimethylamino)-3-(1-(2,2,3,3,3-pentafluoropropyl)-1H-pyrazol-4-yl)-2-(trifluoromethyl)-4H-pyrido[1,2-a]pyrimidin-4-one] are 121 nM and 59%.
On to `COc1ccn2c(=O)c(-c3ccc(OCC(F)F)cc3)c(C(F)(F)F)nc2c1` [Example 1-10, 3-(4-(2,2-difluoroethoxy)phenyl)-8-methoxy-2-(trifluoromethyl)-4H-pyrido[1,2-a]pyrimidin-4-one], for which the IC50 against Delta-5-Desaturase (D5D) [1] is 7.9 nM. At Delta-5-Desaturase (D5D) [2], the inhibition in vivo at 30 mg/kg was 75%.
On the same counts, the results for `O=c1c(-c2cnn(CC(F)(F)C(F)(F)F)c2)c(C(F)(F)F)nc2ccc(Cl)cn12` [Example 35, 7-Chloro-3-[1-(2,2,3,3,3-pentafluoropropyl)-1H-pyrazol-4-yl]-2-(trifluoromethyl)-4H-pyrido[1,2-a]pyrimidin-4-one] are 3.8 nM and 75%.

Broadly, the IC50 is the concentration that gives 50% inhibition.
